Measured values from patent US10174013B2, “Benzimidazole derivatives as kinase inhibitors” (SELVITA S.A., priority 2012, dated 2019).
Counter-ions that a name gives are not always drawn. Like-named read-outs stand apart in the source and are kept apart here.

Experiments:
Pim-1 = Pim-1 (Homo sapiens (Human), UniProt P11309); assay: ADP-Glo Kinase Assay, Pim-1; type: biochemical; details: 1 μM compound; for inhibition at 1 µM: read-out: Pim-1 % INH (1 μM)
In short: (§1)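 ADP-Glo luminescent ADP detection of human kinase activity in 5 mM MOPS pH 7.5, 5 mM MgCl2, 0.4 mM EDTA, 1.5 mM DTT. ATP at each kinase's apparent Km; compounds diluted to 1000 nM in assay buffer. Percent inhibition from normalised luminescence.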

Pim-3 = Pim-3 (Homo sapiens (Human), UniProt Q86V86); assay: ADP-Glo Kinase Assay, Pim-3; type: biochemical; details: 1 μM compound; for inhibition at 1 µM: read-out: Pim-3 % INH (1 μM)
In short: as §1

FLT3wt = FLT3wt (Homo sapiens (Human), UniProt P36888); assay: ADP-Glo Kinase Assay, Flt3 wt; type: biochemical; details: 1 μM compound; for inhibition at 1 µM: read-out: Flt3wt % INH (1 μM)
Sequence of FLT3wt (P36888 27-993): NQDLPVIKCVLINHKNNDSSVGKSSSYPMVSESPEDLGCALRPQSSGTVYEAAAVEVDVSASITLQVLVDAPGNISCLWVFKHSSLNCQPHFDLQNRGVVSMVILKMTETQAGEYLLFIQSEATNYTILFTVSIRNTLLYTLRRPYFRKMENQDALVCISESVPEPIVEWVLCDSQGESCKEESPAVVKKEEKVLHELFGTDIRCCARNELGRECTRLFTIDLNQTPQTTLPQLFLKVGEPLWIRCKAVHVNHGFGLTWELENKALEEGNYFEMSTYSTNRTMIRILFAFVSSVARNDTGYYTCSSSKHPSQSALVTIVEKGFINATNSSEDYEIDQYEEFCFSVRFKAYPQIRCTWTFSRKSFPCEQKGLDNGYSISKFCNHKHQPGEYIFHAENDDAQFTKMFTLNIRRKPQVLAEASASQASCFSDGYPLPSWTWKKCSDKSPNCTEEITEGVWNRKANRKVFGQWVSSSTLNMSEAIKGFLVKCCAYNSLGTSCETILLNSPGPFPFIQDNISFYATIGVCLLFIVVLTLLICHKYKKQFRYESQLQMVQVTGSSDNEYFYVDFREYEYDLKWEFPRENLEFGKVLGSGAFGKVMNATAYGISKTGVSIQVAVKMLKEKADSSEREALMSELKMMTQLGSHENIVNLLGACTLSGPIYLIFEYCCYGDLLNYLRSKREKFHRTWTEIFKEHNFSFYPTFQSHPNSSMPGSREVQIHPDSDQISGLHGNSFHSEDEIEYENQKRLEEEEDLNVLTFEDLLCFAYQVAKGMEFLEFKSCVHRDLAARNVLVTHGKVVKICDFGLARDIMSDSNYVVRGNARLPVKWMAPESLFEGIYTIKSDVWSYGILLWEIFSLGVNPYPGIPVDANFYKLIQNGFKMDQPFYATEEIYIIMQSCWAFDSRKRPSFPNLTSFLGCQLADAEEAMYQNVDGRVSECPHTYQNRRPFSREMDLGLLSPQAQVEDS
In short: as §1

CDK2/E = CDK2/E (Homo sapiens (Human), UniProt P24941); assay: ADP-Glo Kinase Assay, CDK2/E; type: biochemical; details: 1 μM compound; for inhibition at 1 µM: read-out: CDK2/E % INH (1 μM)
In short: as §1

MV4-11 cells = assay: Growth inhibition, MTS assay, MV4-11; type: cell-based, Human; details: MTS cell viability, read-out: MV4-11 ED50
HEL92 cells = assay: Growth inhibition, MTS assay, HEL92; type: cell-based, Human; details: MTS cell viability, read-out: HEL92 ED50
HepG2 cells = assay: Growth inhibition, MTS assay, HepG2; type: cell-based, Human; details: MTS cell viability, read-out: HepG2 ED50
Jeko-1 cells = assay: Growth inhibition, MTS assay, Jeko-1; type: cell-based, Human; details: 72 hours, MTS cell viability, read-out: Jeko-1 ED50
Source text: (§2) The following cell lines, were obtained and used in tests as outlined below: • Human myelomonocytic, biphenotypic leukemia MV4-11 cells (harboring a Flt3-ITD mutation); • Human Acute Myeloid Leukemia MOLM16 cells; • Human Acute Myeloid Leukemia MOLM13 cells (harboring a Flt3-ITD mutation); • Human Myeloid Leukemia KG-1 cells; • Human erythroleukemia HEL92 cells; • Human mantle cell lymphoma Jeko-1 cells; • Human hepatocellular carcinoma HepG2 cells; and • Human colon adenocarcinoma SW-480 cells.
(§3) The assays were carried out according to the following protocol, which is described as an example for the MV4-11 cells:
(§4) Ten thousand MV4-11 cells were inoculated into each well of a 96-well microplate (manufactured by Corning Corp.) using Iscove's MDM medium (culture medium) containing 10% fetal calf serum (FCS). The same day, a dimethyl sulfoxide (DMSO) solution of each test compound prepared in a concentration of 10 mmol/L was further diluted with DMSO to the desired concentrations (0.1, 0.5, 1, 2.5, 5 and 10 micromol/L), and the diluted solution was added to each well. The individual wells were further cultured in 5% carbon dioxide at 37° C. for 72 hours. […] Briefly, 10 μl MTS (3-(4,5-Dimethyl-2-thiazolyl)-5-(carboxymethoxyphenyl)-2-(4-sulfophenyl)-2H-tetrazolium was added to each well, and culturing was performed in 5% carbon dioxide at 37° C. for 2 hours. After this incubation and using a microplate spectrophotometer (Synergy 2 multi-mode microplate reader (BioTek)), the absorbance of each well was measured at 490 nm. The value for cells not incubated with a test compound was designated as 100%. By comparing these values with the absorbance difference obtained at the well in which each test compound was added, the cell viability (% viability) after treatment with the test compound was calculated.

hERG potassium channel = hERG potassium channel (Homo sapiens (Human), UniProt Q12809); assay: hERG automated patch clamp assay (QPatch HT)
Sequence of hERG potassium channel (Q12809 whole entry): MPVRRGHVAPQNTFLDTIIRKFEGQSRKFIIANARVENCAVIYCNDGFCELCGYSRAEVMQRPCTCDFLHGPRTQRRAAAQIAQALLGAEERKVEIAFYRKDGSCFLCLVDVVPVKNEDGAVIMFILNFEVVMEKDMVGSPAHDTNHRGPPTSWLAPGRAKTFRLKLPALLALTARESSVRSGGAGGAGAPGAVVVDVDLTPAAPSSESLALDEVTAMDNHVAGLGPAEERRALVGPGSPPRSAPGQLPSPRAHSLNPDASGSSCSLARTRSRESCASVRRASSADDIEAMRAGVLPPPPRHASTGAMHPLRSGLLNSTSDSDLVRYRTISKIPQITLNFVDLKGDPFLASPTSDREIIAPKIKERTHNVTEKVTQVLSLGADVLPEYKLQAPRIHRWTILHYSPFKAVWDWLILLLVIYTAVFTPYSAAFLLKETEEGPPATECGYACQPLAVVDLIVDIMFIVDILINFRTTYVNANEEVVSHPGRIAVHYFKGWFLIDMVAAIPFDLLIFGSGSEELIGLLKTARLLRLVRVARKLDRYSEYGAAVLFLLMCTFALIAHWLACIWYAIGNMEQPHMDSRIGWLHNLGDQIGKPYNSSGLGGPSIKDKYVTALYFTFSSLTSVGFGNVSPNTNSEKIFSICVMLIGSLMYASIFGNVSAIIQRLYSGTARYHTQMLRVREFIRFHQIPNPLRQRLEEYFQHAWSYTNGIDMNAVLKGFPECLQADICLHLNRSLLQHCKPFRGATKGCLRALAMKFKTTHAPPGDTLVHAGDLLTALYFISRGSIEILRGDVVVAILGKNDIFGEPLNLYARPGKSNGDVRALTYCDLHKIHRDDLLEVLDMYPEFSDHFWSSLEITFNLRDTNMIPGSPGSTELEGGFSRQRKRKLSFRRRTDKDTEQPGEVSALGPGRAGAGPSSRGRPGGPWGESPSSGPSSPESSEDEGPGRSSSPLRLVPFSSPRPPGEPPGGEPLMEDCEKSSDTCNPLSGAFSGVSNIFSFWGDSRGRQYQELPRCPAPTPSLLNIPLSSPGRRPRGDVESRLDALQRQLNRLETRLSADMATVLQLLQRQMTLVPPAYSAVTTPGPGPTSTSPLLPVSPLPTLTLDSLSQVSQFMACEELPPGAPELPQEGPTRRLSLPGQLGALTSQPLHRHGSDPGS
Procedure: The hERG (human ether-A-go-go-related gene) channel corresponds to an important anti-target for potential new drugs since its inhibition may lead to sudden death. In order to establish whether the compounds of the present invention act on hERG, the following experiment was carried out.
The in vitro effects of the compounds indicated in Table 5 on the hERG potassium channel current (a surrogate for Iκr, the rapidly activating, delayed rectifier cardiac potassium current) expressed in mammalian cells were evaluated at room temperature using the QPatch HT® (Sophion Bioscience A/S, Denmark), an automatic parallel patch clamp system. Each compound indicated in Table 5 was evaluated at 0.1, 1, 3, 10 and 30 μM with each concentration tested in a minimum of two cells (n≥2). The duration of exposure to each compound concentration was 3 minutes.

Pim-2 = Pim-2 (Homo sapiens (Human), UniProt Q9P1W9); assay: ADP-Glo Kinase Assay, Pim-2; type: biochemical; details: 1 μM compound; for inhibition at 1 µM: read-out: Pim-2 % INH (1 μM)
Sequence of Pim-2 (Q9P1W9 whole entry): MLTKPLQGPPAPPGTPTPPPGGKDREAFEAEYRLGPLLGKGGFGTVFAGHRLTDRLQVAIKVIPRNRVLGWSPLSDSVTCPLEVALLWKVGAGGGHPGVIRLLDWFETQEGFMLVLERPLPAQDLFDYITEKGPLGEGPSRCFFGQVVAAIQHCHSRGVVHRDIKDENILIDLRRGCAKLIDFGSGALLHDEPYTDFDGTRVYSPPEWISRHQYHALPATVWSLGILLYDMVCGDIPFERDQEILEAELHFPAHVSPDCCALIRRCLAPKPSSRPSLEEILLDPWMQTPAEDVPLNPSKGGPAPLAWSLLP
In short: as §1

DYRK1 = DYRK1 (Homo sapiens (Human), UniProt Q13627); assay: ADP-Glo Kinase Assay, DYRK1; type: biochemical; details: 1 μM compound; for inhibition at 1 µM: read-out: DYRK1A % INH (1 μM)
In short: as §1

SW-480 cells = assay: Growth inhibition, MTS assay, SW-480; type: cell-based, Human; details: 72 hours, MTS cell viability, read-out: SW-480 ED50
Source text: as §2, §3, §4

MV4-11 xenograft = MV4-11 xenograft in immunocompromised mice; type: in vivo; details: MV4-11 xenograft, oral
Source text: Several compounds of the present invention have been studied in a xenograft in mice, an in vivo tumor transplantation model used to investigate the factors involved in malignant transformation, invasion and metastasis, as well as to examine response to therapy. For the purpose of acceptance of donor leukemic cells (MV4-11 or MOLM16 cells), immunocompromised mice were used, namely particularly severely compromised immunodeficient mice (NOD/scid, SCID/beige). When tumors developed size of approx. 50-200 mm^3, the compounds as indicated below in Tables 3 and 3a were administered orally every day for 2-3 weeks, in once a day (QD) or twice a day (BID) schedule. During the course of the experiment, the mice were monitored and the following two parameters were measured: the tumor growth inhibition (TGI) factor as a measure of therapeutic efficacy and the body weight change (ΔBW) factor as a measure of possible compound toxicity. The results are depicted in Tables 3 and 3a.
Next, compound 26A was evaluated in a xenograft study of acute myeloid leukemia (MV-4-11), alone or in a combinational treatment with Cytarabine in vivo (Table 3b; FIG. 6). Compound 26A was tested in two doses (50 and 25 mg/kg) and administered twice a day (BID); Cytarabine was administered at dose of 50 mg/kg three times in a week (TIW). During 15 days of compound administration dose-dependent anti-cancer activity of compound 26A (administered alone) was shown. Tumor growth inhibition reached −82% and −77%, respectively.

Sequence of Pim-1 (P11309 whole entry): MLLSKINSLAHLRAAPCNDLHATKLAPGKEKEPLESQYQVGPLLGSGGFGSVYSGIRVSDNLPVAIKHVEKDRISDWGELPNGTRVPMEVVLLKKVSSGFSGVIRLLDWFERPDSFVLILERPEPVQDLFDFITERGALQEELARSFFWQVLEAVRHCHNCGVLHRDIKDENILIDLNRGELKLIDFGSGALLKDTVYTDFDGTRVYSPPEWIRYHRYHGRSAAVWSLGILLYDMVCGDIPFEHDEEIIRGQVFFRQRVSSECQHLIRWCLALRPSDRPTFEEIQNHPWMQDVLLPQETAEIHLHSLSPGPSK

Compound | inhibition at 1 µM (Pim-1) [%] | inhibition at 1 µM (Pim-3) [%] | inhibition at 1 µM (FLT3wt) [%] | inhibition at 1 µM (CDK2/E) [%] | IC50 (MV4-11 cells; Homo sapiens, MV4-11, 72 h) [µM] | IC50 (HEL92 cells; Homo sapiens, 72 h) [µM] | IC50 (HepG2 cells; Homo sapiens, HepG2, 72 h) [µM] | IC50 (Jeko-1 cells; Homo sapiens, JeKo-1) [µM] | inhibition at 1 µM (Pim-2) [%] | inhibition at 1 µM (DYRK1) [%] | IC50 (hERG potassium channel) [µM] | IC50 (SW-480 cells; Homo sapiens, SW480) [µM] | other results
CCn1c(NCC2CCCN2)nc2c([N+](=O)[O-])c(Br)c(Br)cc21 (stereo not drawn) [Example 1AM] | 85 | 53 | < 5 | 12 | 2.6 | 8 | 2.7 | 2.8 |  |  |  |  | IC50 (hERG potassium channel; human, 3 min): 1.46 µM
CC(C)n1c(N2CCOC(CN)C2)nc2c([N+](=O)[O-])c(Br)c(Br)cc21 (stereo not drawn) [Example 1AQ] | > 95 | 83 | < 5 | < 5 | 2.5 | 9.6 | 4.9 |  | 40 | 22 |  |  | IC50 (hERG potassium channel; human, 3 min): 1.86 µM
CC(C)n1c(N[C@@H]2CCCNC2)nc2c([N+](=O)[O-])c(Br)c(Br)cc21 [Example 1AS] |  |  |  |  |  |  |  |  |  |  | 5.77 |  | IC50 (MV4-11 cells; 72 hours): 0.6 µM; IC50 (HEL92 cells; 72 hours): 5.4 µM; IC50 (HepG2 cells; 72 hours): 1.4 µM; IC50 (Jeko-1 cells): 1.1 µM
CC(C)Cn1c(N2CCNCC2)nc2c([N+](=O)[O-])c(Br)c(Br)cc21 [Example 1N] | > 95 | > 95 | 55 | 39 | 0.6 | 1.4 | 1.7 |  | 69 | > 95 |  | 1.2 | TGI (tumor growth inhibition) (MV4-11 xenograft; 150 mg/Kg QD): 52%; ΔBW (body weight change) (MV4-11 xenograft; 150 mg/Kg QD): −6.5%; TGI (tumor growth inhibition) (MV4-11 xenograft; doses as in Table 3): up to 70%; IC50 (hERG potassium channel; human, 3 min): 1.28 µM
CCCn1c(NCCCN)nc2c([N+](=O)[O-])c(Br)c(Br)cc21 [Example 1P] |  |  |  |  |  |  |  |  |  |  | 1.88 |  | Pim-1 % INH (1 μM) (Pim-1): >95%; Pim-2 % INH (1 μM) (Pim-2): 36%; Pim-3 % INH (1 μM) (Pim-3): 77%; Flt3wt % INH (1 μM) (FLT3wt): 37%; CDK2/E % INH (1 μM) (CDK2/E): <5%; DYRK1A % INH (1 μM) (DYRK1): 23%; IC50 (MV4-11 cells; 72 hours): 1.4 µM; IC50 (HEL92 cells; 72 hours): 7.0 µM; IC50 (HepG2 cells; 72 hours): 1.5 µM; IC50 (SW-480 cells): 2.9 µM
CC(C)n1c(N2CCCC(N)C2)nc2c([N+](=O)[O-])c(Br)c(Br)cc21 (stereo not drawn) [Example 1T] | > 95 | > 95 | 21 | 7 | 0.6 | 5.1 | 1.3 | 1.7 | 81 | 27 |  | 3.2 | 
CCCn1c(N2CCCC(N)C2)nc2c([N+](=O)[O-])c(Br)c(Br)cc21 (stereo not drawn) [Example 1U] | > 95 | > 95 | 9 | < 5 | 0.6 | 4.7 | 1.5 | 1.8 | 37 | 35 |  | 3.3 | 
O=[N+]([O-])c1c(Br)c(Br)cc2c1nc(N1CCNCC1)n2CCN1CCNCC1 [Example 2C, 5,6-dibromo-4-nitro-2-(piperazin-1-yl)-1-[2-(piperazin-1-yl)ethyl]-1H-1,3-benzodiazole hydrochloride] |  |  |  |  | 2.8 |  | 7 | 6.2 |  |  | 2.5 |  | 
CC(C)=CCn1c(N2CCNCC2)nc2c([N+](=O)[O-])c(Br)c(Br)cc21 [Example 2E, 5,6-dibromo-1-(3-methylbut-2-en-1-yl)-4-nitro-2-(piperazin-1-yl)-1H-1,3-benzodiazole hydrochloride] | 79 | 56 | 25 | 15 | 5.5 | 5.4 | 0.9 | 1.6 | 63 | 72 |  | 1.8 | 
O=[N+]([O-])c1c(Br)c(Br)cc2c1nc(N1CCNCC1)n2C1CC1 [Example 21A, 5,6-dibromo-1-cyclopropyl-4-nitro-2-(piperazin-1-yl)-1H-1,3-benzodiazole trifluoroacetate] | 87 | 71 | 37 | 5 | 0.5 | 1.9 | 1.6 | 0.6 | 42 | 50 |  | 3.2 | 
CCn1c(N2CCNC(=O)C2)nc2c([N+](=O)[O-])c(Br)c(Br)cc21 [Example 22A, 4-(5,6-dibromo-1-ethyl-4-nitro-1H-1,3-benzodiazol-2-yl)piperazin-2-one] | 65 | 28 | 8 | < 5 |  |  |  |  |  |  |  |  | IC50 (hERG potassium channel; read-out: hERG IC50, automated patch clamp, room temperature, 0.1-30 μM, 3 minutes exposure): 10.1 µM
CCn1c(NC2CCCCC2N)nc2c([N+](=O)[O-])c(Br)c(Br)cc21 (stereo not drawn) [Example 22L, 1-N-(5,6-dibromo-1-ethyl-4-nitro-1H-1,3-benzodiazol-2-yl)cyclohexane-1,2-diamine] | 80 | > 95 | < 5 | < 5 | 1.9 | 3.2 | 1.3 |  |  | 17 | 0.85 | 1.2 | 
CCn1c(N2CCN(CCCN3CCNCC3)CC2)nc2c([N+](=O)[O-])c(Br)c(Br)cc21 [Example 22R, 5,6-dibromo-1-ethyl-4-nitro-2-{4{3-(piperazin-1-yl)propyl]piperazin-1-yl}-1H-1,3-benzodiazole] |  |  |  |  | 1.1 | 2.9 | 1.2 |  |  |  | 1.78 | 0.5 | 
